Columns and labels:
ZCCHC24 [1] = assay: cells; type: cell-based; conditions: Homo sapiens; HiBiT tag-inserted cells, 24 hours; read-out: EC50 concentration for the maximal increase in the ZCCHC24 expression
Experimental: 1 × 10^4 HiBiT tag-inserted cells were seeded in a 96-well plate. […] After 24 hours, the medium was discarded, and 12.5 µL PBS, 12.5 µL Lytic Buffer from the HiBiT kit (Promega), 0.5 µL substrate, and 0.25 µL LgBiT were added. After 10 minutes of reaction at room temperature, luminescence was measured using ARVO X3 (Perkin Elmer).

MDAMB231 = assay: cells; type: cell-based; conditions: Homo sapiens, MDA-MB-231; MDAMB231, 48 hours, Cell Titer Glo; read-out: IC50 for maximal cell survival inhibition
Experimental: 2 × 10^3 HiBiT tag-inserted cells were seeded in a 96-well plate. […] After 48 hours, 20 µL of Cell Titer Glo (Promega) was added. After 30 minutes of reaction at 37°C, the […] was measured using ARVO X3 (Perkin Elmer).

ZEB1 = assay: qPCR analysis on JQ1-treated MDAMB231; type: cell-based, human; conditions: MDAMB231, 100 nM JQ1, 24 hours
MDAMB231 cells = type: cell-based, human; conditions: 100 nM JQ1, 1 µM PD407824 or both, 24 hours, CD44/NRP1 staining
Experimental: 2 × 10^5 MDAMB231 cells were seeded in a 6-well plate. […] Twenty-four hours later, cells were collected, stained with CD44-PE (IM7, Biolegend) and NRP1-APC (FAB3870A, R&D), and subjected to FACS analysis using FACS Calibur (BD).

ZCCHC24 [2] = assay: Compound screening using HiBiT tag knock-in cells (ZCCHC24 expression reporter); type: cell-based, human; conditions: LOPAC compounds at 1 µM for 24 hours; HiBiT tag-inserted MDAMB231 reporter cells
Experimental: HiBiT tagged-MDAMB231 cells with were produced using the procedure below. First, crRNA (*14 (SEQ ID NO: 14) in Table 1) (IDT) was resuspended in the Nuclease-Free Duplex buffer (IDT) to a final concentration of 100 µM, and incubated at 95°C for 5 minutes together with the same amount of tracrRNA (IDT). The oligo complex was then slowly cooled down to room temperature and incubated with ALT-R Cas9 Nuclease V3 (61 µM) (Integrated DNA Technologies, IA, USA) for 20 minutes at room temperature to form the Cas9 complex. Next, a single-stranded DNA oligo (*15 (SEQ ID NO: 15) in Table 1) (comprising the HiBiT sequence and a sequence complementary to the sequence of the C-terminal region of ZCCHC24) and Cas9 complex were co-transfected into MDAMB231 cells by an electroporation method using the NEPA21 super electroporator ([…]). After single cell cloning, cells inserted with the HiBiT tag were collected.
The compound screening procedure is as follows. HiBiT tag-inserted cells were plated at 1 × 10^4 cells in a 96-well plate, cultured for 24 hours, and then reacted with a low molecular compound library (LOPAC; Sigma Aldrich) at 1 µM (final concentration) for 24 hours. After the culture medium was discarded, cells were incubated with 12.5 µL PBS, 12.5 µL lysis buffer (Promega), 0.5 µL substrate (Promega), and 0.25 µL LgBiT (Promega) for 10 minutes at room temperature in the dark. The luminescence intensity was measured using ARVO X3 (Perkin Elmer).
As mentioned above, ZCCHC24 is strongly expressed in cancer stem cell-like cells, and maintains the expression of genes important for maintaining cancer stemness by directly binding to the mRNA of these genes. Therefore, in order to clarify the expression induction mechanism of ZCCHC24, labeled reporter cells were created by inserting a HiBiT tag into the C terminus of ZCCHC24, 1280 types of compounds in LOPAC (Sigma Aldrich) were administered to these reporter cells at a concentration of 1 µM for 24 hours, and compound screening was performed (Figure 17A). […]

SMILES	EC50 (ZCCHC24 [1]) [nM]	IC50 (MDAMB231) [nM]	expression of ZEB1 (ZEB1)	cancer stem cell-like population (MDAMB231 cells)	Z score (ZCCHC24 expression) (ZCCHC24 [2])
Cc1sc2c(c1C)C(c1ccc(Cl)cc1)=NC(CC(=O)OC(C)(C)C)c1nnc(C)n1-2 (stereo not shown) [JQ1]	~50	~100	dramatically increased	no decrease	
CC[C@@]1(O)C(=O)OCc2c1cc1n(c2=O)Cc2cc3ccccc3nc2-1 [camptothecin]					up-regulators (compounds with Z score > 3.0 above were defined as up-regulators)
CC(=O)[C@]1(O)Cc2c(O)c3c(c(O)c2[C@@H](O[C@H]2C[C@H](N)[C@H](O)[C@H](C)O2)C1)C(=O)c1ccccc1C3=O [idarubicin]					up-regulators (compounds with Z score > 3.0 above were defined as up-regulators)
COc1cc2c[n+](C)c3c4cc5c(cc4ccc3c2cc1OC)OCO5 [nitidine]					up-regulators (compounds with Z score > 3.0 above were defined as up-regulators)
